Assay results as given in paper PMC10018702 (Nature chemistry, 2022).
Blank lines part the entries; values can stand above or below the molecule they belong to.

What was measured:
[1] = system: cancer cell proliferation; conditions: cited from earlier work
[2] = biological target: T1, eEF1A ternary complex on human ribosomes (Homo sapiens, UniProt P68104); experiment: smFRET ternary complex real-time delivery experiment; type: biochemical; conditions: 10 μM drug delivered with ternary complex, 25 °C
T1 sequence (P68104 1-462): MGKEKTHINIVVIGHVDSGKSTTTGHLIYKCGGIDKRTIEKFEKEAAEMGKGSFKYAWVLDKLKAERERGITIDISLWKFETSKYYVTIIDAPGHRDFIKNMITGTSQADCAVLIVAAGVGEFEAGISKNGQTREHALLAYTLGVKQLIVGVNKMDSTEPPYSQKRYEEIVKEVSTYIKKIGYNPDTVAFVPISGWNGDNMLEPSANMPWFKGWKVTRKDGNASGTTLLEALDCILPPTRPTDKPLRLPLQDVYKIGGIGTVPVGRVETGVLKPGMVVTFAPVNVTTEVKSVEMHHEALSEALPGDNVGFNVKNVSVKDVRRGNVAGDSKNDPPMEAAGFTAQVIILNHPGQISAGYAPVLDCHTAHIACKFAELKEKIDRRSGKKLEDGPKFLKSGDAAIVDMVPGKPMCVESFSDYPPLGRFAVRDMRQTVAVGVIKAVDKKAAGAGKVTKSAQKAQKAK

[3] = biological target: T1, eEF1A ternary complex on human ribosomes; experiment: smFRET drug chase experiments; type: binding
[4] = mouse, in vivo, ip, 2 mg/kg
[5] = system: Eμ-Myc/+ lymphoma cells; experiment: Eμ-Myc lymphoma allograft model; conditions: 1.5 or 2.0 mg/kg, intraperitoneal, 3 times per week
[6] = system: HCT116 cells; conditions: HCT116, 72 h, alamarBlue
[7] = system: HCT116 cells; experiment: OPP incorporation assay; conditions: HCT116, 24 h continuous treatment, then 1-h OPP pulse
[8] = biological target: eukaryotic elongation factor-1α (eEF1A) (UniProt P68104); experiment: single-molecule FRET chase
[9] = from rebinding constants, chase with 0-10 μM drug

Molecule: C=C[C@H](C)C[C@@H]1NC(=O)[C@H]([C@H](O)C(C)C)N(C)C(=O)[C@H](C)N(C)C(=O)[C@@H]([C@@H](C)CC)NC(=O)[C@@H]([C@H](O)C(C)C)NC(=O)[C@H]2CCCCN2C(=O)[C@H](C)N(C)C1=O [A3]
concentration inhibiting cancer cell proliferation [1]: low nanomolar concentrations

Molecule: C=C[C@H](C)C[C@@H]1NC(=O)[C@H]([C@H](O)C(C)C)N(C)C(=O)[C@H](C)N(C)C(=O)[C@@H]([C@@H](C)CC)NC(=O)[C@@H]([C@H](O)C(C)C)NC(=O)[C@H]2CCCCN2C(=O)[C@H](C)N(C)C1=O [SR-A3]
aa-tRNA accommodation [2]: strongly inhibited
rebinding to stalled eEF1A-ribosome complex relative to SS-A3 [3, 9]: twice as fast
rebinding to stalled eEF1A-ribosome complex relative to ternatin-4 [3, 9]: four times as fast
residence time longer than ternatin-4 or SS-A3 ([3]; washout into drug-free buffer): about 60%
AUCinf, fold higher than ternatin-4 [4]: ~ 2.1 fold
Cmax, fold higher than ternatin-4 [4]: ~ 1.7 fold
body weight [5]: no significant body weight loss
tolerability ([5]; both dose groups): well tolerated
survival of tumor-bearing mice ([5]; n = 5 per group): dramatically prolonged survival

Molecule: C=C[C@H](C)C[C@@H]1NC(=O)[C@H]([C@@H](O)C(C)C)N(C)C(=O)[C@H](C)N(C)C(=O)[C@@H]([C@@H](C)CC)NC(=O)[C@@H]([C@H](O)C(C)C)NC(=O)[C@H]2CCCCN2C(=O)[C@H](C)N(C)C1=O [SS-A3]
aa-tRNA accommodation [2]: strongly inhibited
fold less potent than SR-A3 (HCT116 proliferation IC50) [6]: ~ 3 fold
potency in protein synthesis inhibition compared with SR-A3 [7]: slightly less potent

residence time [8]: 56 s
Molecule: ternatin-4 (peptide)

aa-tRNA accommodation [2]: strongly inhibited
Molecule: ternatin-4 [reference compound]
potency in protein synthesis inhibition compared with SR-A3 [7]: behaved identically
